Experimental data reported in patent US20100022014A1, “Method for Evaluating Obesity Controller” (Kao Corporation, priority 2006, published 2010).

Tested on: insulin secretion
Assay: Postprandial insulin secretion after oral glucose + triolein emulsion with added 1-monoolein (Example 5)
Format: in vivo, mouse
Conditions: MAG in a one-tenth or one-fifth amount, in words
Description: Triolein (obtained from Sigma Corp.) was used as triacylglycerol, and 1-monoolein (obtained from Sigma Corp.) was used as monoacylglycerol. Glucose (Kanto Chemical Co., Inc.) was used as the carbohydrate.
Eight fasted mice (C57BL/6J, male, 8 weeks old) were grouped in each group, and the mice were orally administered, using a sonde, with 2 mg/g of body weight of glucose only; with the glucose and also 2 mg/g of body weight of triolein (TAG), in the form of an emulsion obtained by emulsifying 0.02 mg/g of body weight of the lipid with egg yolk lecithin (Glucose and TAG/MAG0, respectively); or with mixtures obtained by respectively adding 0.08, 0.2 and 0.4 mg/g of body weight of 1-monoolein (MAG) to the emulsion (TAG/MAG1, TAG/MAG2, and TAG/MAG3, respectively). The blood was sampled from the orbital vein of each mouse before the administration, and at 10 and 30 minutes after the administration, the blood insulin level was measured, and the area under curve (AUC) of the graph was calculated. The insulin level was measured by the ELISA method (insulin measuring kit, Morinaga Biochemical Lab, Inc.).
Relative values of the amount of secreted insulin (AUC) for 30 minutes after the administration, with respective to the insulin AUC value of the mice which ingested glucose only, taken as 100, are presented in Table 9.

## CCCCCCCC/C=C\CCCCCCCC(=O)OCC(O)CO (stereo not shown) [MAG, 1-monoolein]
  Effect on postprandial insulin secretion relative to TAG/MAG0: effect of suppressing the postprandial insulin secretion in the blood was recognized
